Measured values published in PubChem BioAssay (NCI).
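Five concentrations, 48 hours, 96-well plates. At the TGI there is no net growth.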

Legend:
Assay in all cases: NCI-60 cell line screen, 48 h
BT-549 breast = system: BT-549 breast
UACC-62 melanoma = system: UACC-62 melanoma
MDA-MB-231 breast = system: MDA-MB-231 breast
SF-268 CNS = system: SF-268 CNS
NCI-H522 lung = system: NCI-H522 lung
786-0 renal = system: 786-0 renal
A549 NSCLC = system: A549 NSCLC
KM12 colon = system: KM12 colon
CAKI-1 renal = system: CAKI-1 renal
RPMI-8226 leukemia = system: RPMI-8226 leukemia
OVCAR-8 ovarian = system: OVCAR-8 ovarian
NCI/ADR-RES ovarian = system: NCI/ADR-RES ovarian

Structure (SMILES)	TGI (BT-549 breast) [µM]	TGI (UACC-62 melanoma) [µM]	TGI (MDA-MB-231 breast) [µM]	TGI (SF-268 CNS) [µM]	TGI (NCI-H522 lung) [µM]	TGI (786-0 renal) [µM]	TGI (A549 NSCLC) [µM]	TGI (KM12 colon) [µM]	TGI (CAKI-1 renal) [µM]	TGI (RPMI-8226 leukemia) [µM]	TGI (OVCAR-8 ovarian) [µM]	TGI (NCI/ADR-RES ovarian) [µM]
CCOC(=O)CN=C1Nc2ccccc2C(=O)N2CSCC12 (stereo unspecified)	> 100	> 100	> 100	> 100	> 100	> 100	> 100	> 100	> 100	> 100	> 100	> 100
COC(=O)c1ccc(CCC2=CC(=O)C(Br)=CC2=O)cc1	23.9	31.7	38.7	43	10.5	35.2	36.9	32.3	26.4	49.3	32	43.8
CCOC(=O)c1[nH]cnc1/N=N/N(C)N	> 100	> 100	> 100	> 100	78.7	> 100	> 100	14	61.2	> 100	> 100	> 100
NC(CCl)=NC1CN2CCC1CC2 (stereo unspecified)	> 100	> 100	> 100	> 100	58	> 100	> 100	> 100	> 100	> 100	> 100	> 100
O=c1c(/C=C/c2c(O)ccc3ccccc23)nnc2sc(-c3cccc([N+](=O)[O-])c3)nn12	> 100	43.9	58	89.8	28.1	> 100		> 100	> 100	> 100	> 100	67.8
O=c1[nH]nc(Cc2ccccc2)n1/N=C/c1ccc([N+](=O)[O-])o1	1.7	4.56	18.4	11.7	3.87	22.7	> 100	6.49	25	21.2	19.2	13.1
OCCN1CN(c2nc(N3CN(CCO)C3)nc(N3CN(CCO)C3)n2)C1	70.8	28.8	36.6	48.3	30	60.7	> 100	47.9	58.2	> 100	> 100	> 100
O=C(O)C(F)(F)C(F)(F)C(F)(F)C(F)(F)C(=O)O	> 100	> 100	> 100	> 100	> 100	> 100	> 100	> 100	> 100	> 100	> 100	> 100
Cc1c(C)c2c(c(N)c1C#N)C(=O)N(OS(=O)(=O)c1ccccc1)C2=O	39.7	61.4	> 100	> 100	34	30.3	32.1	> 100	51	37.8	38.6	58.9
COc1ccc(C2c3cc4c(cc3OC(NNC(N)=O)C2C)OCO4)cc1 (stereo unspecified)	> 95.7	> 70.2	> 100	> 100	18.3	37.5	> 100	> 100	> 100	20.2	> 57.9	> 100
c1ccc2c(c1)CCN(C1=NCCO1)C2	> 10	> 10	> 10	> 10	> 10	> 10	> 10	> 10	> 10	> 10	> 10	> 10
CN(C)c1ccc(/C=N/n2c(-c3ccccc3)nc3ccccc3c2=O)cc1	> 100	> 100	> 100	> 100	> 100	> 100	> 100	> 100	> 100	> 100	> 100	> 100
O=c1[nH]nc(-c2ccc([N+](=O)[O-])cc2)n1/N=C/c1ccc([N+](=O)[O-])cc1	> 100	> 100	> 100	> 100	> 100	> 100	> 100	> 100	> 100	> 100	> 100	> 100
CN(C)Cc1cc(C(C)(C)C)cc(CNC2CCCCC2)c1O	> 100	> 100	> 100	47.4	60.4	> 100	> 100	> 100	> 100	57.9		69.4
O=c1c2ncn(C3CCCCO3)c2n(-c2ccccc2)c(=S)n1-c1ccccc1 (stereo unspecified)	72.1	56.5	73.5	> 92.2	> 86.7	> 86.2	> 100	> 100	> 97.7	> 100	> 100	> 82.6
CC(=O)[C@H]1CC[C@H]2[C@@H]3CCC4=CC(=O)CC[C@]4(C)[C@H]3CC[C@]12C	32.1	30.1	33.2	69.8	31	54.2	88.5	31.5	> 100	26.3	47.3	31.3
NNC(=Nc1ccccc1)SCc1ccccc1	> 100	> 100	> 100		> 100	> 100	> 100	> 100	> 100	> 100	> 100	> 100
CCOP(=O)(CC1CC(O)(CNc2cc(Cl)nc(N)n2)C1)OCC (stereo unspecified)	> 100	> 100	> 100	> 100	> 100	> 100	> 100	> 100	> 100	> 100	> 100	> 100
CSc1nc2c(c(=O)n1C)N=C(c1ccc(Cl)cc1)CC(c1ccccc1)N2 (stereo unspecified)	56.1	34.7	27.3		47.9	> 100	73.7	31.7	46.4	47.8	> 100	74.1

Structure (SMILES)	TGI (BT-549 breast) [µM]	TGI (UACC-62 melanoma) [µM]	TGI (MDA-MB-231 breast) [µM]	TGI (SF-268 CNS) [µM]	TGI (NCI-H522 lung) [µM]	TGI (786-0 renal) [µM]	TGI (A549 NSCLC) [µM]	TGI (KM12 colon) [µM]	TGI (CAKI-1 renal) [µM]	TGI (RPMI-8226 leukemia) [µM]	TGI (OVCAR-8 ovarian) [µM]	TGI (NCI/ADR-RES ovarian) [µM]
Cc1ccc2ccc(=O)oc2c1	> 100	> 100	> 100	> 100	> 100	> 100	> 100	> 100	> 100	> 100	> 100	> 100
COc1ccc(-c2cc(C3CC3)nc(SCC(=O)O)c2C#N)cc1	> 100	> 100	> 100	> 100	71.6	> 100	> 100	> 100	> 100	> 100	> 100	> 100
COC(=O)C1=COC(C)C2C[n+]3ccc4c([nH]c5ccccc54)c3CC12 (stereo unspecified)	> 100	> 100	> 100	> 100	> 100	> 100	> 100	> 100	> 100	> 100	> 100	> 100
O=C(CCCC1Cc2ccccc2C1=O)c1ccccc1 (stereo unspecified)	> 100	> 100	> 100	> 100	> 100	> 100	> 100	> 100	> 100	> 100	> 100	84.6
O=C1OC(C2Cc3ccccc3C2=O)c2ccccc21 (stereo unspecified)	> 100	> 100	> 100	> 100	> 100	> 100	> 100	> 100	> 100	> 100	> 100	> 100
Cc1c(C#N)c2nnn(-c3ccc([N+](=O)[O-])cc3)c(=O)n2c1-c1ccccc1	31.8	19.4	34.7	32.4	13.9	26.6	> 100	20.5	52.2	> 100	25.7	65.5
Cc1ccc(S(=O)(=O)Nc2nc3ccccc3c(=O)n2C2CCCCC2)cc1	> 100	> 100	> 100	> 100	> 100	> 100	> 100	> 100	> 100	> 100	> 100	> 100
Cc1ccc(S(=O)(=O)N(CC(O)c2ccccc2)c2ccccc2F)cc1 (stereo unspecified)	32	28	36.6	31.1	32	34.7	41.4	42.6	33.7	39	36.9	35.1
CCN(CC)c1ccc2c(c1)Oc1ccc(N(C(C)=O)c3ccccc3)cc1C21OC(=O)c2ccccc21 (stereo unspecified)	> 100	> 100	> 100	> 100	> 100	> 100	> 100	> 100	> 100	> 100	> 100	> 100
NC(Cc1ccccc1)=NCC(=O)O	> 100	> 100	> 100	> 100	> 100	> 100	> 100	> 100	> 100	> 100	> 100	> 100
COc1ccc(/C=C2\Sc3nnc(C)n3N=C2c2cc(F)c(Cl)cc2Cl)cc1OC	34.1	33.4	79.8	50.9	38.7	9.64	56.2	33.1	23.7	11.1	37.9	35.6
NNC(=O)Cc1cccnc1	> 100	> 100	> 100	> 100	> 100	> 100	> 100	> 100	> 100	> 100	> 100	> 100
CC(C)=CCC/C(=C\CC/C(=C\CCc1ccoc1)C(=O)O)C(=O)O	> 100	> 100	> 100	> 100	> 100	> 100	> 100	> 100	> 100	> 100	> 100	> 100
Cc1ccc(C(=O)Cc2nc3ncccc3[nH]c2=O)cc1	92.5	> 100	60.7	99.7	> 100	45.3	26.7	> 100	> 100	> 100	53.1	> 100
CC(=O)c1cc2c(s1)C(=O)c1scc(C(C)=O)c1C2=O	2.68	0.692	0.809	1.5	1.28	1.9	2.71	3.39	2.34	1.08	0.63	0.737
O=C(O)CS(=O)c1ccc2c3c(cccc13)C(=O)c1ccccc1-2 (stereo unspecified)	> 100	> 100	> 100	> 100	> 100	> 100	> 100	> 100	> 100	> 100	> 100	> 100
COc1cc(CCNC2=CC(=O)c3cccnc3C2=O)ccc1O	2.75	2.7	2.08	7.7	2.26	3.67	3.27	13.2	5.04	5.2	12	11.5
CC(=O)OC(CC(C)C)P1(=O)N(CC(C)(C)C)[C@@H]2CCCC[C@H]2N1CC(C)(C)C (stereo partly specified)	29.2	23.3	19.7	29.3	19.2	23.9	18	24.1	26	15.3	21.9	22.6
Cc1cccc(/C=N/NC(=S)N2CCCCCC2)n1	14.4	1.08	15.2		0.788	0.775	17.2	> 44.7	8.86	0.374	0.428	0.202
